According to patent US20250302862A1, “SMALL RNA DRUG FOR INHIBITING ACTIVITY OF CANCER CELLS” (Institute of Basic Medical Sciences Chinese Academy of …, priority 2022, published 2025):

Assays:
H460 cells [1] = assay: Cell migration (scratch assay, Transwell); assay type: cell-based, human; settings: 100 nmol/L, 48 h
Experimental: Method 1: H460 cells with a cell density of more than 90% in 10 cm^2 dishes were plated in 12-well plates using serum-free medium according to the cell growth rate. After 12 h, 200 uL pipette tips were used to draw straight lines in the wells. The floating cells were washed away and transfection was performed, and the groups (three wells per group, two lines per well) were divided as follows: • blank control group: 200 uL of opti-MEM per well • negative control group (NC group) and experimental group: • A. 100 uL of opti-MEM and 2 uL of iMax were mixed well for 5 min • B. 100 uL of opti-MEM and 5 uL of small RNA (final concentration 100 nmol/L) were mixed well • C. solution A and solution B were mixed well and let stand for 15 min, and then was added to each well at a 200 uL system • Note: 100 uL of nuclease-free water was added to 2 nmol of small RNA dry powder for dissolution at a storage concentration of 20 umol/L
After 48 h, the supernatant was discarded and images were taken under a microscope.
Method 2: H460 cells with a cell density of more than 90% in 10 cm^2 dishes were digested and then resuspended with 1 mL of serum-free medium and counted. 100,000 cells (100 uL) were plated in the upper chamber, and complete medium with 10% FBS was added to the lower chamber of each Transwell (migration chamber). […]
(§1) 1) H460 cells with a cell density of more than 90% in 10 cm^2 dishes were digested and then resuspended with 1 mL of serum-free medium and counted. […]
as §1

H460 cells [2] = assay: Cell invasion (Matrigel Transwell); assay type: cell-based, human; settings: 100 nmol/L, 48 h
Experimental: Matrigel (basement membrane matrix) was thawed on crushed ice one night before and diluted with serum-free medium to a final concentration of 200-300 ug/mL. 100 uL of the diluted Matrigel was added to each upper chamber, let stand at 37° C. for 30 min, and the supernatant was aspirated. H460 cells with a cell density of more than 90% in 10 cm^2 dishes were digested and resuspended with 1 mL of serum-free medium and counted. 100,000 cells (100 uL) were plated in the upper chamber, and complete medium with 10% FBS was added to the lower chamber of each chamber. Transfection was performed after 12 h, and the groups (3 wells per group) were divided as follows: • blank control group: 20 uL of opti-MEM • negative control group (NC group) and experimental group: • A. 10 uL of opti-MEM and 0.2 uL of iMax were mixed well for 5 min • B. 10 uL of opti-MEM and 0.5 uL of small RNA (final concentration 100 nmol/L) were mixed well • C. solution A and solution B were mixed well and let stand for 15 min, and then was added to each well at a 20 uL system • Note: 100 uL of nuclease-free water was added to 2 nmol of small RNA dry powder for dissolution at a storage concentration of 20 umol/L
After 48 h, the medium in upper and lower chambers was discarded. The cells were fixed with paraformaldehyde at room temperature for 15 min, stained with 0.1% crystal violet at room temperature for 15 min, and rinsed with PBS. The cells in the upper chamber were gently wiped off with cotton swabs, and the chamber was dried. A Leica inverted microscope DMi8 was turned on, the 5× objective lens was selected, the parameters were adjusted and the white balance was performed following the manual. Each chamber was photographed, followed by counting and statistic processing.
1) Matrigel basement membrane matrix was thawed on crushed ice one night before and diluted with serum-free medium to a final concentration of 200-300 ug/mL. […] H460 cells with a cell density of more than 90% in 10 cm^2 dishes were digested and resuspended with 1 mL of serum-free medium and counted. […]

Row | Substance | cell migration (H460 cells [1]) | cell invasion (H460 cells [2])
1 | HQi-sRNA-2: small RNA derived from Scutellaria baicalensis, sequence AUGGUUCGAUUCCGGAGAGGG (listed as RNA, chemistry not given here) | inhibits | inhibits
2 | MDM-sRNA-39: small RNA derived from Maytenus hookeri, sequence GGGAUUGUAGUUCAAUUGGUCAGAGCACC (listed as RNA, chemistry not given here) | inhibits | inhibits
3 | MDM-sRNA-163: small RNA derived from Maytenus hookeri, sequence UGACUCUAGUCCGACUUUGUGAAAUGACU (listed as RNA, chemistry not given here) | inhibits | inhibits
